This test relates to MOLP8 cells. The test is described as follows: MOLP8 CellEvent Caspase-3/7 Green apoptosis activation assay (IncuCyte live-cell kinetic readout). It is filed as cell-based. The following applies: each independent run listed. As to the method:
MCL-1 is a regulator of apoptosis and is highly over-expressed in tumor cells that escape cell death. The assay evaluates the cellular potency of small-molecule compounds targeting regulators of the apoptosis pathway, primarily MCL-1, Bfl-1, Bcl-2, and other proteins of the Bcl-2 family. Protein-protein inhibitors disrupting the interaction of anti-apoptotic regulators with BH3-domain proteins initiate apoptosis.
Activation of the apoptotic pathway was measured using the CellEvent™ Caspase-3/7 Green ReadyProbes™ Reagent (Thermo Fisher C10423, C10723). This assay produces a green fluorescent stain in cells that enter the apoptosis pathway. CellEvent® Caspase-3/7 Green reagent is a four amino acid peptide (DEVD) conjugated to a nucleic acid-binding dye that is non-fluorescent when not bound to DNA. The CellEvent® Caspase-3/7 Green reagent is intrinsically non-fluorescent, as the DEVD peptide inhibits binding of the dye to DNA. Upon activation of caspase-3/7 in apoptotic cells, the DEVD peptide is cleaved and the free dye can bind DNA, generating a bright green fluorescence. The activation of Caspase-3 and Caspase-7 is downstream of inhibition of MCL-1 or other apoptosis inhibiting proteins in cell lines that are dependent on them.
The live-cell readout on the IncuCyte permits tracking over time of the Caspase activation. […] The IncuCyte readout also allows one to normalize for cell number, as the suspension cells are hard to distribute evenly.
Signals were measured every 2 h for a duration of 22 h. The ratio of the Caspase mask to the Confluence mask, per image, as raw data, was calculated and the kinetic trace for every well was exported to Genedata Screener for analysis.
In Genedata Screener values for 6 h, 12 h, and 22 h from the kinetic traces were extracted. The values were normalized against negative controls (untreated cells). A standard dose-response analysis was performed on the normalized data.
The following data was reported at each of the following three aforementioned time points: (a) The dose-response curve, (b) The qAC50 and qAC50 Mode, and (c) Max Activity.
Cells were maintained in culture medium containing 10% Heat Inactivated (HI) FBS, 2 mM L-Glutamine and 50 µg/mL Gentamycin phenol red free RPMI-1640. Cells were split at 0.4 million/mL twice a week.
On Day 1, plates containing individual wells with test compounds at 10 mM concentration, 150 nL per well. The final concentrations range from […] compound (and no compound control) and compounds were thawed at room temperature for 1 hour. 25 μl of prewarmed medium was added into each well by multidrop (column 1, 3-22, 24), followed by addition of DMSO control (0.6% DMSO) in column 2. The plate was sealed using Breathe-Easy® sealing membrane and shaken for 30 min at room temperature to dissolve the test compound(s) in medium. The plate was then kept in the incubator for 1 hour at 37° C., 5% CO2.
MOLP8 cells in medium at […] (20000/50 μl final in assay) were prepared with CellEvent™ Caspase-3/7 Green Detection Reagent at 4 μM (2 μM final in assay). Once prepared, the cells were added to the test compound plate in an amount of 20000 and the plate was immediately placed in the IncuCyte and imaging started using following settings: 10× objective, 2 s exposure time in green channel, interval of 2 h, acquisition stopped after 22 h.
For analysis in IncuCyte, a Basic Analysis protocol was defined to calculate the “confluence” and “caspase” areas from the “Phase” and “green” images, respectively, as follows: (a) Confluence: Segmentation Adjustment 1, Hole Fill 0, Adjust Size −2, No filters (b) Caspase: Top-Hat segmentation, Radius 10, Threshold 0.3 GCU, Edge Split On with sensitivity 0, Hole Fill 0, Adjust Size 1, and filter on a minimum Area of 20 μm^2. The analyzer is trained on a sufficient number of positive and negative control wells, as well as compound treated wells, verifying that the “confluence” layer detects both live and dead (condensed) cells. […]

Setting [1] is: 6 h, read-out: MOLP8 Caspase 3/7 AC50 at 6 h.
Where [2] appears, read: 12 h, read-out: MOLP8 Caspase 3/7 AC50 at 12 h.
[3] abbreviates: 22 h, read-out: MOLP8 Caspase 3/7 AC50 at 22 h.

Molecules are shown by their SMILES. “And” between values parts separate entries of the source, which are not always exact repeats. Identical values can stand only once. Like-named read-outs stand apart in the source and are kept apart here.

Drawing on patent publication US20220306653A1, “MACROCYCLIC INHIBITORS OF MCL-1” (Janssen Pharmaceutica NV, priority 2019, published 2022), this text covers AC50 for 2 compounds.

As for `Cc1c(C(=O)O)n2c3ccc(Cl)c(c13)-c1c(nn(C)c1C)CSCc1cc(n(C)n1)CSc1cc(c3ccccc3c1)OCCC2` (single isomer, unassigned) [Compound 2, 1^5-chloro-1^3,2^1,2^5,6^1-tetramethyl-1′H,2′H,6H-10-oxa-4,8-dithia-1(4,1)-indola-2(4,3),6(3,5)-dipyrazola-9(3,1)-naphthalenacyclotridecaphane-1^2-carboxylic acid], the AC50 by setting is: under setting [1], 4570 nM and 4790 nM; under setting [2], 4470 nM and 4680 nM; under setting [3], 4270 nM and 4470 nM.
As to `Cc1c(C(=O)O)n2c3ccc(Cl)c(c13)-c1c(nn(C)c1C)CSCc1cc(n(C)n1)CSc1cc(c3ccccc3c1)OCCC2` (single isomer, unassigned) [Compound 1, 1^5-chloro-1^3,2^1,2^5,6^1-tetramethyl-1^1H,2^1H,6^1H-10-oxa-4,8-dithia-1(4,1)-indola-2(4,3),6(3,5)-dipyrazola-9(3,1)-naphthalenacyclotridecaphane-1^2-carboxylic acid], the AC50 reads like this: under setting [1], 178 nM and 129 nM; under setting [2], 141 nM and 182 nM; under setting [3], 145 nM and 170 nM.
